For orientation: fraction unbound means the share of the substance not bound to proteins or other matrix. For orientation: share remaining means what is left of the initial amount, in per cent.

Data set [1] concerns advanced ER+/AR+ breast cancer. Further details: method as in NCT00755885. The settings on record: ref NCT00755885, cited from earlier work.
Data set [2] deals with AR+ TNBC. On the set-up: method as in PMID 29373071, PMID 25944485. The conditions noted are these: cited from earlier work.
The test system of data set [3] is BT549. In words: proliferation assay, trypan blue exclusion. The data set is classed as cell-based. The conditions noted are these: BT549 (lacking Rb), 96 h. How it is done:
(§1) A–F Breast cancer cells were treated with either vehicle or (R)-9b for 48 h; cells were harvested and processed for cell cycle analysis using propidium iodide staining, followed by flow cytometry. G BT549 and H MDA-MB-468 cells were treated with varying drug concentrations of palbociclib or (R)-9b for 96 h and the cell viability assessed using trypan blue exclusion method. I BT549, and J MDA-MB-468 cells were treated with 1 µM palbociclib or (R)-9b for 48 h and subjected to cell cycle analysis using propidium iodide staining, followed by flow-cytometry. Palbociclib-resistant MDA-MB-231 (K) and HCC-1395 (L) were generated and treated with varying drug concentrations of palbociclib or (R)-9b for 96 h and the cell viability assessed using trypan blue exclusion method.
(§2) For proliferation assay, 5 × 10^4 cells were plated in 6-well plate and treated with either vehicle (DMSO) or varying concentrations of (R)-9b or palbociclib in complete media for 96 h and number of viable cells were counted by trypan blue exclusion assay. Breast cancer cell lines were treated with vehicle or varying concentrations of (R)-9b for 72 h. The cells were harvested, washed 2 times with PBS and incubated with 3 ul of Annexin V-FITC antibody according to the manufacturers protocol (BD Biosciences). Five µl Propidium iodide was used to stain necrotic cells. The cells were acquired using the BD FACSCalibur machine (BD Biosciences) and data was analyzed using FlowJo software. Cell cycle analysis was performed as mentioned earlier. Briefly, vehicle or (R)-9b (48 h) treated cells were harvested by trypsinization, washed 2 times with PBS, and fixed using chilled 70% Ethanol for 1 h, followed by 2 washes with PBS. The cell pellets were treated with 50 µl RNase A (100 µg/ml; Sigma) for 15 min at 37 °C and Propidium Iodide (PI; 50 µg/ml, Sigma) was added to these cells, followed by acquisition using BD FACS Canto-II or FACSCalibur machines. The data were analyzed using FlowJo software.

The test system of data set [4] is MDA-MB-468. In words: proliferation assay, trypan blue exclusion. The format is cell-based. The settings on record: MDA-MB-468 (lacking Rb), 96 h. How it is done: as §1, §2
The subject of data set [5] is MDA-MB-468 xenografts. In words: MDA-MB-468 xenograft in mammary fat pad. The format is in vivo, female SCID mice. As for the experimental part: To validate these findings in breast tumors, MDA-MB-468 cells were injected in female SCID mice. Once palpable tumors were formed (5 weeks), mice were treated with vehicle (6% captisol), palbociclib (80 mg/Kg of body weight), (R)-9b (36 mg/Kg of body weight) by oral route, or (R)-9b (24 mg/Kg of body weight) by subcutaneous injection, five times a week.
Fig. 7 ACK1 inhibitor overcomes palbociclib-resistant breast cancer growth and metastasis. A 3 × 10^6 MDA-MB-468 cells were injected in the 4th inguinal mammary fat pad of female SCID mice. Once the tumors were palpable, the mice were treated with either vehicle (Captisol; n = 7), Palbociclib at 80 mg/kg (n = 6), or (R)-9b at 36 mg/Kg (n = 6) orally. In addition, mice were injected with (R)-9b at 24 mg/Kg (n = 7) subcutaneously. Mice were treated five times a week, for 22 days. B, C The tumors were harvested and photographed, and the weights were recorded. D Vehicle or (R)-9b treated breast cancer cells were subjected to ChIP using pY88-H4 antibody, followed by qPCR for CXCR4 gene. E CXCR4 mRNA transcript levels in vehicle or (R)-9b treated MDA-MB-231 cells. 18S rRNA was used as housekeeping gene. F MDA-MB-231 cells were transfected with ACK1 or scrambled siRNA, followed by qRT-PCR to determine CXCR4 mRNA transcript levels. G Representative lung metastatic deposits of MDA-MB-231 cells injected via the tail veins in female SCID mice, treated with either vehicle or 24 mg/Kg (R)-9b orally. H Graphical quantitation of lung metastatic deposit. I and J 5 × 10^5 luciferase expressing 4T1 cells were injected into 4th inguinal mammary fat pad of female BALB/c mice. Once the tumors were palpable, mice were treated with either vehicle or (R)-9b at 24 mg/Kg (n = 3, each) subcutaneously for 2 weeks, five times a week. The metastases were assessed using IVIS. Data are represented as the mean ± SEM. *p < 0.05; **p < 0.01; ***p < 0.001. For (A, C–F, I), p values were calculated using unpaired two-tailed Student’s t test.
All animal experiments were performed using the standards for humane care in accordance with the NIH Guide for the Care and Use of Laboratory Animals. Mice were obtained from Charles River Laboratories and experiments were performed according to IACUC protocols (IACUC # 20180259) approved in writing by Washington University in St. Louis Department of Comparative Medicine (DCM). 1.5 × 10^6 Cal-148 or MCF7, or 3 × 10^6 MDA-MB-468 cells were suspended in 200 µl of PBS with 50% matrigel (BD Biosciences) and were implanted subcutaneously into the mammary fat pad (between fourth and fifth inguinal) of female SCID C.B17 mice (n = 8 per group). Once the tumors were palpable (about 4–5 weeks), mice were randomly chosen for subcutaneous injection (Cal-148 and MCF7; 24 mg/Kg body weight) or given oral gavage with (R)-9b (MCF7; 36 mg/Kg body weight) resuspended in 6% Captisol (or 6% Captisol in PBS as vehicle), five times a week, for 4–5 weeks. Tumor volumes were measured twice a week using calipers. At the end of the study, all mice were humanely euthanized, tumors extracted and weighed.

For data set [6] the following is noted: human, plasma.
The nature of data set [7]: in vitro. The conditions noted are these: human.
Data set [8] can be described thus: in vitro. The conditions noted are these: rat.

Turning to `C[C@]12CC[C@H](O)CC1=CC[C@@H]1[C@@H]2CC[C@]2(C)C(c3cccnc3)=CC[C@@H]12` [abiraterone], in data set [1] (in 24 weeks), the clinical benefit rate is given as 20%. The “median progression-free survival duration” value in data set [1] is reported as 2.8 months.
On to `CNC(=O)c1ccc(N2C(=S)N(c3ccc(C#N)c(C(F)(F)F)c3)C(=O)C2(C)C)cc1F` [enzalutamide], for which the clinical benefit rate in data set [2] (at 16 weeks) is 33%. For the same compound, the “median progression-free survival duration” value in data set [2] was 3.3 months.
For `CC(=O)c1c(C)c2cnc(Nc3ccc(N4CCNCC4)cn3)nc2n(C2CCCC2)c1=O` [palbociclib, reference compound], the “sensitivity (cell proliferation)” value in data set [3] and in data set [4] was “resistant” each time. In data set [5] (palbociclib 80 mg/Kg oral, (R)-9b 36 mg/Kg oral or 24 mg/Kg subcutaneous, five times a week, 3 weeks), the xenograft tumor growth entry is “robust tumor growth”. The “weights of the mice” value in data set [5] (palbociclib 80 mg/Kg, (R)-9b 36 mg/Kg oral or 24 mg/Kg subcutaneous) is on record as “modest decrease in weights”. Further, the “histology (H&E) of heart, spleen, kidneys and livers” value in data set [5] (palbociclib 80 mg/Kg, (R)-9b oral and subcutaneous) was “did not reveal histological abnormalities”.
With `CC(=O)CC(c1ccccc1)c1c(O)c2ccccc2oc1=O` (stereo not shown) [warfarin], the “% Bound” value in data set [6] is on record as 98.53%. The “% Unbound” value in data set [6] is reported as 1.47%. Also, the recovery in data set [7] (% Recovery) was determined as 92.3%; in data set [8] (% Recovery) it was 86.7%. Moreover, the fraction unbound in data set [7] (plasma, % Bound) is 0.0147; in data set [7] (plasma, % Unbound), 0.0147. For the same compound, the amount remaining at 6 h in data set [7] (plasma, % Remaining at 6 hr) stood at 97.8%; in data set [8] (plasma, % Remaining at 6 hr), 88.2%. Besides, the fraction unbound at 6 h in data set [8] (plasma, % Bound) was 0.0069; in data set [8] (plasma, % Unbound) it was 0.0069.

(Values after article PMC10348910, “Epigenetic reprogramming of cell cycle genes by ACK1 promotes breast cancer resistance to CDK4/6 inhibitor” (Oncogene, 2023).)
